Results reported in ChEMBL document CHEMBL1201862, “PubChem BioAssay data set” (2004).
Values belong to the molecule of their own block, whether it stands above or below them. Active and inactive are the calls of the source.

How the values were obtained:
[1] = target: T1, Sentrin-specific protease 7 (Homo sapiens, UniProt Q9BQF6); format: functional;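 also: Luminescence-based dose-response confirmation of ultra-high-throughput screening hits, measuring inhibition of SENP7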
T1 sequence (Q9BQF6 whole entry): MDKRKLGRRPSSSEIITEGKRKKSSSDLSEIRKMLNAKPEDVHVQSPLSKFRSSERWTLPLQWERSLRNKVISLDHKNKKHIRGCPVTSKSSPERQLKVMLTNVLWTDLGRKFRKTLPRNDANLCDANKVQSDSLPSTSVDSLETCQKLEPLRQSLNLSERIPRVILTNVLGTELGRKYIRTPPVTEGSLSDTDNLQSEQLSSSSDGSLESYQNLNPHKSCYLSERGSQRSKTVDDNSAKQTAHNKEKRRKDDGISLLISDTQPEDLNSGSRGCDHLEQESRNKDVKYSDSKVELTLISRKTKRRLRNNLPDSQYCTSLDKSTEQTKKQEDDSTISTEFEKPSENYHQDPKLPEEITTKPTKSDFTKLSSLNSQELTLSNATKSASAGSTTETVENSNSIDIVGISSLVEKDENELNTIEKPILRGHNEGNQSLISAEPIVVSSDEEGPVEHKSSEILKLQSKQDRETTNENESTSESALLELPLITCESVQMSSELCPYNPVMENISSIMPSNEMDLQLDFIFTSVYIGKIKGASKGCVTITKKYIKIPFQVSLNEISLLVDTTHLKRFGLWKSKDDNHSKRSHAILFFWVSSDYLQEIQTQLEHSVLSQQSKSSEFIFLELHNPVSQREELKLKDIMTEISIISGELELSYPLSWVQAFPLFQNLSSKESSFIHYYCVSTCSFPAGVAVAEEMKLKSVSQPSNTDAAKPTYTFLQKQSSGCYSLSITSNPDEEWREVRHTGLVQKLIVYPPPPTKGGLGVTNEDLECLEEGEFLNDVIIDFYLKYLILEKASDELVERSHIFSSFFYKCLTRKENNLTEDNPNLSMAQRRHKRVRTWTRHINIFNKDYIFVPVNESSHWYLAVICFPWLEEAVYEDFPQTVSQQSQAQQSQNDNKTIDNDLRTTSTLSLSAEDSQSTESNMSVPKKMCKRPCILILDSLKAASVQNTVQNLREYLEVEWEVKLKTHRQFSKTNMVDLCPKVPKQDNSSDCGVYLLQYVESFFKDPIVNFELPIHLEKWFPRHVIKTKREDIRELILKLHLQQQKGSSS

[2] = target: T2, Sentrin-specific protease 8 (Homo sapiens, UniProt Q96LD8); format: functional;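 also: luminescence read-out of SENP8 inhibition, dose-response confirmation following an ultra-high-throughput screen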
T2 sequence (Q96LD8 whole entry): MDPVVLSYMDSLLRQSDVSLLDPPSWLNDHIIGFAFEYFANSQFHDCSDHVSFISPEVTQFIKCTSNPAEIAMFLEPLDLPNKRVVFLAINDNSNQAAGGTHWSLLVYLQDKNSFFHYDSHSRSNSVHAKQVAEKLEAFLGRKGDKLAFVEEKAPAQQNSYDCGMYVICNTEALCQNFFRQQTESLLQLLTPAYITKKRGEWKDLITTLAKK

Caspase-9 = Caspase-9 (Homo sapiens, UniProt P55211); assay: caspase-9 enzyme inhibition, dose response, selectivity assay for caspase-6 inhibitor project, biochemical, fluorescence, plate reader, cherry-picked samples (AID 743293)
Sequence of Caspase-9 (P55211 1-315 limits assumed): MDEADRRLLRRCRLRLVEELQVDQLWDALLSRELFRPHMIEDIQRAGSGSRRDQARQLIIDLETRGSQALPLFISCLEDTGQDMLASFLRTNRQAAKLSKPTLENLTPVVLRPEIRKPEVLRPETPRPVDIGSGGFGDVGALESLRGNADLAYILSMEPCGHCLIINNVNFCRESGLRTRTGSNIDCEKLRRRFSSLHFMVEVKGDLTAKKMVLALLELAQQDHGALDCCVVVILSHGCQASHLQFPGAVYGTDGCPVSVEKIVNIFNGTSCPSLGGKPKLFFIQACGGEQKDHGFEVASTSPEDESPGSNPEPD
Sequence of Caspase-9 (P55211 331-416 limits assumed): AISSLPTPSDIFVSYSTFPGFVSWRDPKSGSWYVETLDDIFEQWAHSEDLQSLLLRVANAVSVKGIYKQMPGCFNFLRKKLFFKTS

Insulin-degrading enzyme = target: T3, Insulin-degrading enzyme (Homo sapiens, UniProt P14735); assay: activators of endogenous IDE in HEK cells, dose response, cell-based, fluorescence polarization (AID 588439); format: functional
T3 sequence (P14735 whole entry): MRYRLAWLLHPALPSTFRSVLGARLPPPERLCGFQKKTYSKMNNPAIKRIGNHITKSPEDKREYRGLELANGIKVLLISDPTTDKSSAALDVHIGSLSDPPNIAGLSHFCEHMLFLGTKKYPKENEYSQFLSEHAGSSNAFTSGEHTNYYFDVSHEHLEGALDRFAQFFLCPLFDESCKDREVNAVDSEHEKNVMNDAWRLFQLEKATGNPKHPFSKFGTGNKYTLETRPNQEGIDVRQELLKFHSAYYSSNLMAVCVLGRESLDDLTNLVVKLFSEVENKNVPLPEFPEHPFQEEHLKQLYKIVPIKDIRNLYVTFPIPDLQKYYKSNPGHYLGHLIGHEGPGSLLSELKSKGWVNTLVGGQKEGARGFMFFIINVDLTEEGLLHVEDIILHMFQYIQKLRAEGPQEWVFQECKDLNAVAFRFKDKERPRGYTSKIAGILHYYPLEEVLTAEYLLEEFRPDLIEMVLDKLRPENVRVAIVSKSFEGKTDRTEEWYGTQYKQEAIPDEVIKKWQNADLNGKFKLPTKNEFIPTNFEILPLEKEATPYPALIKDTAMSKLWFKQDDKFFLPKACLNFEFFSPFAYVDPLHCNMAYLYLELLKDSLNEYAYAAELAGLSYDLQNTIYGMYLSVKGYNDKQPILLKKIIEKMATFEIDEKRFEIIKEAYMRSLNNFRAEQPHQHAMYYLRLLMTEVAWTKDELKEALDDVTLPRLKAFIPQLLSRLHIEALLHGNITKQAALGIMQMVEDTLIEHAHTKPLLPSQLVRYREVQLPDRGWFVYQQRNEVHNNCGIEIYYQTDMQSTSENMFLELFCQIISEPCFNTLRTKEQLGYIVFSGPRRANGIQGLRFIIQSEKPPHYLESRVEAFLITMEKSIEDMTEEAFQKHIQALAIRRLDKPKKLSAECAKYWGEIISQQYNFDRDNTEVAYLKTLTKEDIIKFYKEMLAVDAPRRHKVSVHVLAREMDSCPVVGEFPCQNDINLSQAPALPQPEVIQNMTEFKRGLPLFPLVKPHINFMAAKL

[3] = target: Protein kinase C delta type (Homo sapiens, UniProt Q05655); format: functional
Sequence of Protein kinase C delta type (Q05655 whole entry): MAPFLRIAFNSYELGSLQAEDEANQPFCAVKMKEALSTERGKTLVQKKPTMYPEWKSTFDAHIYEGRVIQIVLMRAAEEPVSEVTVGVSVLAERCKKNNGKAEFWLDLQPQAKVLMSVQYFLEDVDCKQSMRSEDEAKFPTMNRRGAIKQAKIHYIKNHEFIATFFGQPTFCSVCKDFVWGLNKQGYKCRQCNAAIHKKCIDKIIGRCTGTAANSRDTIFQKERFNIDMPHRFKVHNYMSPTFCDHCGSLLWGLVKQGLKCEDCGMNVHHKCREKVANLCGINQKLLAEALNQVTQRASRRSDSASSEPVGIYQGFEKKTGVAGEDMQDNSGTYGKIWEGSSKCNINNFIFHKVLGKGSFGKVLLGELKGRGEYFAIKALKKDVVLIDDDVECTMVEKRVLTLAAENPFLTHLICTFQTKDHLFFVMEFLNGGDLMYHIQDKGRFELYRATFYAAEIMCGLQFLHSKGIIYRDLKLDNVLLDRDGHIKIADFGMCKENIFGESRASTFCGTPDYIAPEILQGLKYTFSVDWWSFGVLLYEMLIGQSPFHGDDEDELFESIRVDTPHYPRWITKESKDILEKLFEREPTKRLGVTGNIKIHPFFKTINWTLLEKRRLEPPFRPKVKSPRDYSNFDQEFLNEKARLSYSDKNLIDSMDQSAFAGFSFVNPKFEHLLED

[4] = target: Serine/threonine-protein kinase Chk2 (Homo sapiens, UniProt O96017); format: functional;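 also: CHEK2 entry within a kinome-wide screening panel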
Sequence of Serine/threonine-protein kinase Chk2 (O96017 whole entry): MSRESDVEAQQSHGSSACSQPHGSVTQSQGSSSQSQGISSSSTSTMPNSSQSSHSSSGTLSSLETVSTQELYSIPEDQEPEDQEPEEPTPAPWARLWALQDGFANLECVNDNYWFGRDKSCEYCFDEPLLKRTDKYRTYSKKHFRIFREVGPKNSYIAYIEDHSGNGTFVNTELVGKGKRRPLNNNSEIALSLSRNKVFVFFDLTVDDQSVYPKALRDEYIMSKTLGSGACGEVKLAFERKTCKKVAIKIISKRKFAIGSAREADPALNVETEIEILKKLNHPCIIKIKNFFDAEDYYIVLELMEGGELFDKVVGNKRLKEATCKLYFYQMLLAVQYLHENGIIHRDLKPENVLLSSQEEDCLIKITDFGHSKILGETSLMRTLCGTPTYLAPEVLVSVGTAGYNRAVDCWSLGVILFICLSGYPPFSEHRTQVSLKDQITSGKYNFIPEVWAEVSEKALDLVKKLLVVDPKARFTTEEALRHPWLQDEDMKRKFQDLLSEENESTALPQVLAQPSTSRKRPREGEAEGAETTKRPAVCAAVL

[5] = target: Testis-specific serine/threonine-protein kinase 1 (Homo sapiens, UniProt Q9BXA7); format: functional
Sequence of Testis-specific serine/threonine-protein kinase 1 (Q9BXA7 whole entry): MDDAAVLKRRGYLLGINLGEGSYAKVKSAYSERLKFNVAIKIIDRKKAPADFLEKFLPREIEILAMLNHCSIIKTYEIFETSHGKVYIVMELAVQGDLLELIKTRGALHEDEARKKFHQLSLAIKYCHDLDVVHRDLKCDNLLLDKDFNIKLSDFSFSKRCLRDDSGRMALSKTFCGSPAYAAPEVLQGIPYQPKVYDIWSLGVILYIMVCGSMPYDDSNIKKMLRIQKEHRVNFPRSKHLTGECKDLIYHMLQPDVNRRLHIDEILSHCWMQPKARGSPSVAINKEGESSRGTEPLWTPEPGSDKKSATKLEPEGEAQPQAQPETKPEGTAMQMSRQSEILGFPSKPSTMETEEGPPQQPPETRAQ

[6] = target: Mitogen-activated protein kinase 13 (Homo sapiens, UniProt O15264); format: functional
Sequence of Mitogen-activated protein kinase 13 (O15264 whole entry): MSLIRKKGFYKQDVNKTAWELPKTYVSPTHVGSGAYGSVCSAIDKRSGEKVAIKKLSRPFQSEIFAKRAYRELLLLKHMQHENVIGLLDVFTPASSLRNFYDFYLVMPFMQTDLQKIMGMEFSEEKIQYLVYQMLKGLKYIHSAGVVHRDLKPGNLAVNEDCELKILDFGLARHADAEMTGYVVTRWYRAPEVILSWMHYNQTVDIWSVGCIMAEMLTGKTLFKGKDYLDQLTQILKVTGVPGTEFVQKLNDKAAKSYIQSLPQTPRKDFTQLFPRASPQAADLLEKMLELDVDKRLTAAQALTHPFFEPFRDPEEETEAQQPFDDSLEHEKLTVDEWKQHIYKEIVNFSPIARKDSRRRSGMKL

[7] = target: MAP kinase-interacting serine/threonine-protein kinase 2 (Homo sapiens, UniProt Q9HBH9); format: functional
Sequence of MAP kinase-interacting serine/threonine-protein kinase 2 (Q9HBH9 whole entry): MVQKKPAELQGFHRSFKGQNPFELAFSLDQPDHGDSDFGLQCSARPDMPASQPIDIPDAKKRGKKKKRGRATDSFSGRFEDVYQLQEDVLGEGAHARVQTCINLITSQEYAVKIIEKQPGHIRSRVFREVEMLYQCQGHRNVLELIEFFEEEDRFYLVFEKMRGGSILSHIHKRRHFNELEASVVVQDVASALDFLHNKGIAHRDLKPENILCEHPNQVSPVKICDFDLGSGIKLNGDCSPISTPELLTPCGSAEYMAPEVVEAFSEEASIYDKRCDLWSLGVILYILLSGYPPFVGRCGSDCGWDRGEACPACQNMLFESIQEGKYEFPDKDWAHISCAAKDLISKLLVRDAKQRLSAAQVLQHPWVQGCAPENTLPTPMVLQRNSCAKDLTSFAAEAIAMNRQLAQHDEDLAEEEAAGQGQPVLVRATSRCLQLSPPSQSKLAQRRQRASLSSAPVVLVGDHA

[8] = target: Receptor tyrosine-protein kinase erbB-4 (Homo sapiens, UniProt Q15303); format: functional;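 also: ERBB4 member of a kinome-wide kinase profiling panel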
[9] = target: Mitogen-activated protein kinase 12 (Homo sapiens, UniProt P53778); format: functional;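 also: measured as one member of a kinome-wide kinase profiling panel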
Sequence of Mitogen-activated protein kinase 12 (P53778 whole entry): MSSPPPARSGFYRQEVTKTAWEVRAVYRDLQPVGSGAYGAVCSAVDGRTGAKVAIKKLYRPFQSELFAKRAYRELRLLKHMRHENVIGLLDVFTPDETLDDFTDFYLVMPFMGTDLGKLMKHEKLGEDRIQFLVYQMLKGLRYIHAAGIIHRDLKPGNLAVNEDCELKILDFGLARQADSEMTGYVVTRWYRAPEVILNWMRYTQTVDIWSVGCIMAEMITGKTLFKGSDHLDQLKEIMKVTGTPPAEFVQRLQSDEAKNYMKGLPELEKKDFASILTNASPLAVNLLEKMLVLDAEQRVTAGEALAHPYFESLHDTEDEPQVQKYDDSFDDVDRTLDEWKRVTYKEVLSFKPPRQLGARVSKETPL

[10] = target: Tyrosine-protein kinase FRK (Homo sapiens, UniProt P42685); format: functional;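 also: FRK tested as one member of a kinome panel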
Sequence of Tyrosine-protein kinase FRK (P42685 whole entry): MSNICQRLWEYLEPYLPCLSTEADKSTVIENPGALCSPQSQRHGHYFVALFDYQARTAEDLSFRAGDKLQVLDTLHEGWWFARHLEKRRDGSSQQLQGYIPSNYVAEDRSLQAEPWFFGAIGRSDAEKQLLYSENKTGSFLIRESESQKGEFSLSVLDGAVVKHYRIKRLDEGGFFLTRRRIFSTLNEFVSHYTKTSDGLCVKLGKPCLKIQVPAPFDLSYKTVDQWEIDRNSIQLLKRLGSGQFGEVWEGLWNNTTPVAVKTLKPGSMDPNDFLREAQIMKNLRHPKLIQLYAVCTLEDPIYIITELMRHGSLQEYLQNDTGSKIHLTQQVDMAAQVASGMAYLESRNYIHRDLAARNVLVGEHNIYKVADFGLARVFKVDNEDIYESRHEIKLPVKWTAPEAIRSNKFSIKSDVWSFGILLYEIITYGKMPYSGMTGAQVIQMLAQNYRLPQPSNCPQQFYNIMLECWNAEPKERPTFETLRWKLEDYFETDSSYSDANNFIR

[11] = target: Serine/threonine-protein kinase 3 (Homo sapiens, UniProt Q13188); format: functional;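 also: measured as one member of a kinome-wide kinase panel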
Sequence of Serine/threonine-protein kinase 3 (Q13188 whole entry): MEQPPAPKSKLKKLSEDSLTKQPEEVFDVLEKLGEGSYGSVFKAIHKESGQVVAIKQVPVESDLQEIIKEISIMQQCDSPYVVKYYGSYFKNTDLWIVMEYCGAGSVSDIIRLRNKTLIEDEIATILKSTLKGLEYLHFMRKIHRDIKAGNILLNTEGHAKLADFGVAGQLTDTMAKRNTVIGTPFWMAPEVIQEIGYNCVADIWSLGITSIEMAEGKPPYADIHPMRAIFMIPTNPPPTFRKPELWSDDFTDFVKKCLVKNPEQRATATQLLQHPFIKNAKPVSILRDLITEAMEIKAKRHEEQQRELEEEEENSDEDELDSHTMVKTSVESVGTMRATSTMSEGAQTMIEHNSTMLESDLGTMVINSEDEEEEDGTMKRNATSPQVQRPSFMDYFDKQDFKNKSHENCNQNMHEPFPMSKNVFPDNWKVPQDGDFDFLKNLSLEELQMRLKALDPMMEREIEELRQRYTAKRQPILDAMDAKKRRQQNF

IC50 [1]: 6290 nM (active)
AC50 (Caspase-9): 27200 nM (active)
Compound: O=C(COC(=O)c1ccc([N+](=O)[O-])s1)Nc1ccc(F)cc1
IC50 [2]: 4050 nM (active)

Compound: CCN(CC)CCCC(C)n1c2nc(=O)[nH]c(=O)c-2nc2cc(Cl)ccc21 (stereo not given)
EC50 (Insulin-degrading enzyme): > 54700 nM (inactive)

Ki [3]: 63.1 nM (active)
pKi [3]: 7.2
Ki [4]: > 1580 nM (inactive)
Ki [5]: 126 nM (active)
pKi [5]: 6.9
Ki [6]: 126 nM (active)
pKi [6]: 6.9
Ki [7]: 39.8 nM (active)
pKi [7]: 7.4
Ki [8]: > 3980 nM (inactive)
Ki [9]: 158 nM (active)
pKi [9]: 6.8
Ki [10]: 398 nM (active)
pKi [10]: 6.4
Ki [11]: 50.1 nM (active)
pKi [11]: 7.3
Compound: OC1CCC(Nc2nc(Cl)cc(-c3c[nH]c4ncccc34)n2)CC1 (stereo not given)
